{
  "source": "ChEMBL document CHEMBL2203024",
  "about": "“Synthesis of 6\"-triazole-substituted α-GalCer analogues as potent iNKT cell stimulating ligands” (Bioorg Med Chem, 2012)",
  "system": "iNKT",
  "assay": "Antigenic activity in mouse iNKT cells co-cultured with N38-2C12 cells assessed as potentiation of glycolipid loaded bone marrow dendritic cells-induced IL-2 secretion by ELISA",
  "type": "functional, cell-based",
  "note": "Activity calls are given as the source filed them. No cut-off for these calls is given here.",
  "data": [
    {"compound": "CCCCCCCCCCCCCCCCCCCCCCCCCC(=O)N[C@@H](CO[C@H]1O[C@H](Cn2ccnn2)[C@H](O)[C@H](O)[C@H]1O)[C@H](O)[C@H](O)CCCCCCCCCCCCCC", "values": [
      {"measurement": "Activity", "value": "Active"}
    ]},
    {"compound": "CCCCCCCCCCCCCCCCCCCCCCCCCC(=O)N[C@@H](CO[C@H]1O[C@H](Cn2cc(CCc3ccccc3)nn2)[C@H](O)[C@H](O)[C@H]1O)[C@H](O)[C@H](O)CCCCCCCCCCCCCC", "values": [
      {"measurement": "Activity", "value": "Active"}
    ]},
    {"compound": "CCCCCCCCCCCCCCCCCCCCCCCCCC(=O)N[C@@H](CO[C@H]1O[C@H](Cn2cc(-c3ccccc3)nn2)[C@H](O)[C@H](O)[C@H]1O)[C@H](O)[C@H](O)CCCCCCCCCCCCCC", "values": [
      {"measurement": "Activity", "value": "Active"}
    ]},
    {"compound": "CCCCCCCCCCCCCCCCCCCCCCCCCC(=O)N[C@@H](CO[C@H]1O[C@H](Cn2cc(CCCc3ccccc3)nn2)[C@H](O)[C@H](O)[C@H]1O)[C@H](O)[C@H](O)CCCCCCCCCCCCCC", "values": [
      {"measurement": "Activity", "value": "Active"}
    ]},
    {"compound": "CCCCCCCCCCCCCCCCCCCCCCCCCC(=O)N[C@@H](CO[C@H]1O[C@H](Cn2cc(Cc3ccccc3)nn2)[C@H](O)[C@H](O)[C@H]1O)[C@H](O)[C@H](O)CCCCCCCCCCCCCC", "values": [
      {"measurement": "Activity", "value": "Active"}
    ]},
    {"compound": "CCCCCCCCCCCCCCCCCCCCCCCCCC(=O)N[C@@H](CO[C@H]1O[C@H](Cn2cc(CCCC)nn2)[C@H](O)[C@H](O)[C@H]1O)[C@H](O)[C@H](O)CCCCCCCCCCCCCC", "values": [
      {"measurement": "Activity", "value": "Active"}
    ]}
  ]
}
